# Reference: patent US7135615B2, “Chromosome doubling method” (The Curators of the University of Missouri, priority 2001, dated 2006)
# Where “and” joins values, the source holds several entries; their conditions need not be identical. Identical values can stand only once. Marks after values point to notes of the source that are not given here.
# Experiments:
# [1] = tested on: maize Oh43 haploid seedlings; assay: nitrous oxide gas treatment at 3–8 leaf stages, Oh43 haploids (Example 3); conditions: for Ear (open pollinated): No. of fertile sectors /ear / Ear (open pollinated): No. of kernels produced /ear / Ear (open pollinated): Plants with fertile sectors % / No. of tassel branch Average / Plant height (cm) Average / Tassel: No. of fertile anthers extruded/tassel / Tassel: No. of fertile sectors/tassel / Tassel: Plants with fertile sectors % / Ear (open pollinated): Plants with fertile sectors No. / Tassel: Plants with fertile sectors No. / No. of plants Survived: 600 kPa, 2 days
# Description: Leaf stages were defined as follows, At the 3 leaf stage, there are three elongated leaves and the tip of the fourth leaf appears at the center of the leaf whorl. This stage is defined as V2 according to Ritchie et al. (1997). At the 8 leaf stage, there are 8 elongated leaves and the tip of the 9th and 10th leaves appear at the center of the leaf whorl (late V5 stage). At the 6 leaf stage, six elongated leaves are observable, and the tip of seventh leaf appears at the leaf whorl (late V4 or early V5 stage). Nine to sixteen haploid plants were treated at each stage using a large air tight iron chamber (FIG. 3). […] Moistened calcium hydroxide (50 g) wrapped in a paper towel was included to absorb carbon dioxide that is produced by the seedlings, as carbon dioxide at high concentration will injure the seedlings during the treatment. The soil of the pots was dried prior to treatment to prevent root injuries. […] The gas was introduced slowly into the chamber over a 10 minutes time frame.
# After the treatment, seedlings were transplanted into larger pots, and grown in a greenhouse. A relatively cool temperature (below 25° C.) was maintained to permit the appropriate development of doubled sectors. At flowering, the ears were cross pollinated by an appropriate pollen source to reveal all the fertile sectors on the ears. On the treated plants, plant height (cm), tassel size (cm), number of tassel branches, ear length (cm), the number of fertile sectors on a tassel and an ear, the number of anthers on a tassel, and the number of kernels on an ear were recorded.
# Analyses of variance and Duncan's Multiple Range Tests were performed to determine the effects of treatments on the plant height (cm), tassel size (cm), and ear length (cm). Chi square tests were used to determine the effects of treatments upon the proportion of plants that developed fertile tassel and ear sectors. The ratios of untreated plants with fertile sectors were used to estimate the significance of the ratio of treated plants with fertile sectors.
# Nonparametric tests were performed to compare the distributions. The primary test was the Kruskal-Wallis test. In the initial tests, the null hypothesis considered was that the distributions would be the same for each treatment and control. If the null hypothesis was rejected (P<0.05), then pair wise comparisons of each treatment to the control using Dunn's method were conducted. The tassel branch number was low incidence count data and was analyzed using the same nonparametric tests mentioned above.
# [2] = tested on: maize haploid seedlings of origin B55 × A619; assay: doubled haploid production trial, B55 × A619 haploids (Example 4); conditions: 600 kPa, 2 days; for Ear: No. of kernels produced/ear: selfed
# Method: (§1) Ten to nineteen plants were treated for each plot. Self pollinations were conducted on these treated haploids if there were fertile sectors on the tassel. Pollen grains were collected carefully on a sheet of paper and transferred to the silks repeatedly. Silks and husks were cut back prior to pollination in order to permit maximum seed set. The numbers of fertile tassel and ear sectors, as well as the numbers of anthers and selfed kernels were recorded. Statistical analyses were as described above.
# [3] = tested on: maize haploid seedlings of origin Oh43; assay: doubled haploid production trial, Oh43 haploids (Example 4); conditions: for Ear: Plants with kernels after selfing % / Tassel: No. of fertile anthers extruded/tassel / Tassel: Plants with fertile sectors % / Ear: Plants with kernels after selfing No. / Tassel: Plants with fertile sectors No. / No. of plants Survived / Ear: No. of kernels produced/ear: 600 kPa, 2 days; for Ear: No. of kernels produced/ear: selfed
# Method: as §1
# [4] = Oh43 haploids, 5 leaf stage, 14 survived
# [5] = Oh43 haploids, 6 leaf stage, 12 survived
# [6] = Oh43 haploids, 7 leaf stage, 10 survived
smiles,measurement,setting,value
"[N-]=[N+]=O [nitrous oxide gas, nitrous oxide]",Ear (open pollinated): No. of fertile sectors /ear,[1]; 3 leaf stage,0.7 /ear
same,Ear (open pollinated): No. of kernels produced /ear,[1]; 3 leaf stage,0.5 /ear
same,Ear (open pollinated): Plants with fertile sectors %,[1]; 3 leaf stage,33%
same,No. of tassel branch Average,[1]; 3 leaf stage,3.8**
same,Plant height (cm) Average,[1]; 3 leaf stage,106 a cm
same,Tassel: No. of fertile anthers extruded/tassel,[1]; 3 leaf stage,0.0 /tassel
same,Tassel: No. of fertile sectors/tassel,[1]; 3 leaf stage,0.0 /tassel
same,Tassel: Plants with fertile sectors %,[1]; 3 leaf stage,0%
same,Ear (open pollinated): Plants with fertile sectors No.,"[1]; 3 leaf stage, 12 examined",4
same,Tassel: Plants with fertile sectors No.,"[1]; 3 leaf stage, 12 examined",0
same,No. of plants Survived,"[1]; 3 leaf stage, 12 treated",12
same,effect for increasing the fertile sectors on either tassels and ears,[1]; 3–4 leaf stage,no effect
same,"number of anthers /tassel, span over treatments",[1]; 3–8 leaf stage treatments,0–19.7 /tassel
same,"number of kernels on the ears, span over treatments",[1]; 3–8 leaf stage treatments,0.5–18.6
same,Ear (open pollinated): No. of fertile sectors /ear,[1]; 4 leaf stage,0.8 /ear
same,Ear (open pollinated): No. of kernels produced /ear,[1]; 4 leaf stage,0.8 /ear
same,Ear (open pollinated): Plants with fertile sectors %,[1]; 4 leaf stage,46%
same,No. of tassel branch Average,[1]; 4 leaf stage,4.4**
same,Plant height (cm) Average,[1]; 4 leaf stage,121 b cm
same,Tassel: No. of fertile anthers extruded/tassel,[1]; 4 leaf stage,1.5 /tassel
same,Tassel: No. of fertile sectors/tassel,[1]; 4 leaf stage,0.3 /tassel
same,Tassel: Plants with fertile sectors %,[1]; 4 leaf stage,23%
same,Ear (open pollinated): Plants with fertile sectors No.,"[1]; 4 leaf stage, 13 examined",6
same,Tassel: Plants with fertile sectors No.,"[1]; 4 leaf stage, 13 examined",3
same,No. of plants Survived,"[1]; 4 leaf stage, 13 treated",13
same,Ear (open pollinated): No. of fertile sectors /ear,[1]; 5 leaf stage,1.4 /ear
same,Ear (open pollinated): No. of kernels produced /ear,[1]; 5 leaf stage,1.8 /ear
same,Ear (open pollinated): Plants with fertile sectors %,[1]; 5 leaf stage,46%
same,No. of tassel branch Average,[1]; 5 leaf stage,2.9**
same,Plant height (cm) Average,[1]; 5 leaf stage,124 b cm
same,Tassel: No. of fertile anthers extruded/tassel,[1]; 5 leaf stage,19.7 /tassel
same,Tassel: No. of fertile sectors/tassel,[1]; 5 leaf stage,1.2* /tassel
same,Tassel: Plants with fertile sectors %,[1]; 5 leaf stage,54** %
same,Ear (open pollinated): Plants with fertile sectors No.,"[1]; 5 leaf stage, 13 examined",6
same,Tassel: Plants with fertile sectors No.,"[1]; 5 leaf stage, 13 examined",7
same,Ear (open pollinated): No. of fertile sectors /ear,[1]; 6 leaf stage,1.5 /ear
same,Ear (open pollinated): No. of kernels produced /ear,[1]; 6 leaf stage,18.6 /ear
same,Ear (open pollinated): Plants with fertile sectors %,[1]; 6 leaf stage,67%
same,No. of tassel branch Average,[1]; 6 leaf stage,5.7
same,Plant height (cm) Average,[1]; 6 leaf stage,119 b cm
same,Tassel: No. of fertile anthers extruded/tassel,[1]; 6 leaf stage,5.3 /tassel
same,Tassel: No. of fertile sectors/tassel,[1]; 6 leaf stage,1.8** /tassel
same,Tassel: Plants with fertile sectors %,[1]; 6 leaf stage,100%
same,Ear (open pollinated): Plants with fertile sectors No.,"[1]; 6 leaf stage, 12 examined",8
same,Tassel: Plants with fertile sectors No.,"[1]; 6 leaf stage, 12 examined",12
same,No. of plants Survived,"[1]; 6 leaf stage, 16 treated",12
same,Ear (open pollinated): No. of fertile sectors /ear,[1]; 7 leaf stage,0.8 /ear
same,Ear (open pollinated): No. of kernels produced /ear,[1]; 7 leaf stage,1.1 /ear
same,Ear (open pollinated): Plants with fertile sectors %,[1]; 7 leaf stage,46%
same,No. of tassel branch Average,[1]; 7 leaf stage,5.0*
same,Plant height (cm) Average,[1]; 7 leaf stage,122 b cm
same,Tassel: No. of fertile anthers extruded/tassel,[1]; 7 leaf stage,5.8** /tassel
same,Tassel: No. of fertile sectors/tassel,[1]; 7 leaf stage,2.1** /tassel
same,Tassel: Plants with fertile sectors %,[1]; 7 leaf stage,69** %
same,Ear (open pollinated): Plants with fertile sectors No.,"[1]; 7 leaf stage, 13 examined",6
same,Tassel: Plants with fertile sectors No.,"[1]; 7 leaf stage, 13 examined",9
same,No. of plants Survived,"[1]; 7 leaf stage, 16 treated",13
same,Ear (open pollinated): No. of fertile sectors /ear,[1]; 8 leaf stage,1.0 /ear
same,Ear (open pollinated): No. of kernels produced /ear,[1]; 8 leaf stage,4.1 /ear
same,Ear (open pollinated): Plants with fertile sectors %,[1]; 8 leaf stage,46%
same,No. of tassel branch Average,[1]; 8 leaf stage,5.3*
same,Plant height (cm) Average,[1]; 8 leaf stage,122 b cm
same,Tassel: No. of fertile anthers extruded/tassel,[1]; 8 leaf stage,3.1** /tassel
same,Tassel: No. of fertile sectors/tassel,[1]; 8 leaf stage,1.4** /tassel
same,Tassel: Plants with fertile sectors %,[1]; 8 leaf stage,69** %
same,Ear (open pollinated): Plants with fertile sectors No.,"[1]; 8 leaf stage, 13 examined",6
same,Tassel: Plants with fertile sectors No.,"[1]; 8 leaf stage, 13 examined",9
same,No. of plants Survived,"[1]; 8 leaf stage, 16 treated",13
same,Ear: Plants with kernels after selfing %,[2]; 5 leaf stage,33%
same,Tassel: No. of fertile anthers extruded/tassel,[2]; 5 leaf stage,25.7** /tassel
same,Tassel: No. of fertile sectors/tassel,[2]; 5 leaf stage,1.1* /tassel
same,Tassel: Plants with fertile sectors %,[2]; 5 leaf stage,67** %
same,Ear: Plants with kernels after selfing No.,"[2]; 5 leaf stage, 15 survived",5
same,Tassel: Plants with fertile sectors No.,"[2]; 5 leaf stage, 15 survived",10
same,No. of plants Survived,"[2]; 5 leaf stage, 15 treated",15
same,Ear: No. of kernels produced/ear,[2]; 5 leaf stage,1.3 /ear
same,Ear: Plants with kernels after selfing %,[2]; 6 leaf stage,50** %
same,Tassel: No. of fertile anthers extruded/tassel,[2]; 6 leaf stage,109.9** /tassel
same,Tassel: No. of fertile sectors/tassel,[2]; 6 leaf stage,3.1** /tassel
same,Tassel: Plants with fertile sectors %,[2]; 6 leaf stage,71** %
same,Ear: Plants with kernels after selfing No.,"[2]; 6 leaf stage, 14 survived",7
same,Tassel: Plants with fertile sectors No.,"[2]; 6 leaf stage, 14 survived",10
same,No. of plants Survived,"[2]; 6 leaf stage, 14 treated",14
same,Ear: No. of kernels produced/ear,[2]; 6 leaf stage,9.5* /ear
same,Ear: Plants with kernels after selfing %,[2]; 7 leaf stage,62** %
same,Tassel: No. of fertile anthers extruded/tassel,[2]; 7 leaf stage,60.2** /tassel
same,Tassel: No. of fertile sectors/tassel,[2]; 7 leaf stage,3.9** /tassel
same,Tassel: Plants with fertile sectors %,[2]; 7 leaf stage,92** %
same,Ear: Plants with kernels after selfing No.,"[2]; 7 leaf stage, 13 survived",8
same,Tassel: Plants with fertile sectors No.,"[2]; 7 leaf stage, 13 survived",12
same,No. of plants Survived,"[2]; 7 leaf stage, 13 treated",13
same,Ear: No. of kernels produced/ear,[2]; 7 leaf stage,15.7** /ear
same,self pollination success rates after treatment,[3]; Oh43 haploids,20–30%
same,Ear: Plants with kernels after selfing %,"[3]; Oh43 haploids, 5 leaf stage",29 n.s %
same,Tassel: No. of fertile anthers extruded/tassel,"[3]; Oh43 haploids, 5 leaf stage",11.2* /tassel
same,Tassel: Plants with fertile sectors %,"[3]; Oh43 haploids, 5 leaf stage",57%
same,Ear: Plants with kernels after selfing No.,[3]; [4],4
same,Tassel: Plants with fertile sectors No.,[3]; [4],8
same,No. of plants Survived,"[3]; Oh43 haploids, 5 leaf stage, 19 treated",14
same,Ear: No. of kernels produced/ear,"[3]; Oh43 haploids, 5 leaf stage",0.6 n.s. /ear
same,Ear: Plants with kernels after selfing %,"[3]; Oh43 haploids, 6 leaf stage",17%
same,Tassel: No. of fertile anthers extruded/tassel,"[3]; Oh43 haploids, 6 leaf stage",5.7** /tassel
same,Tassel: Plants with fertile sectors %,"[3]; Oh43 haploids, 6 leaf stage",92** %
same,Ear: Plants with kernels after selfing No.,[3]; [5],2
same,Tassel: Plants with fertile sectors No.,[3]; [5],11
same,No. of plants Survived,"[3]; Oh43 haploids, 6 leaf stage, 16 treated",12
same,Ear: No. of kernels produced/ear,"[3]; Oh43 haploids, 6 leaf stage",1.0 /ear
same,Ear: Plants with kernels after selfing %,"[3]; Oh43 haploids, 7 leaf stage",10%
same,Tassel: No. of fertile anthers extruded/tassel,"[3]; Oh43 haploids, 7 leaf stage",2.6 /tassel
same,Tassel: Plants with fertile sectors %,"[3]; Oh43 haploids, 7 leaf stage",70* %
same,Ear: Plants with kernels after selfing No.,[3]; [6],1
same,Tassel: Plants with fertile sectors No.,[3]; [6],7
same,No. of plants Survived,"[3]; Oh43 haploids, 7 leaf stage, 15 treated",10
same,Ear: No. of kernels produced/ear,"[3]; Oh43 haploids, 7 leaf stage",0.1 /ear
same,Tassel: No. of fertile sectors/tassel,[3]; in vivo,0.8 /tassel and 1.3** /tassel and 1.0 /tassel
